Data published in the supplement of paper PMC4862054.

How the values were obtained:
Conditions in all cases: 72 h
CAL-85-1 [1] = tested on: CAL-85-1
Method in brief: (§1)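 To measure viability, fluorescence at 560/590 nm was read after 2.5 µl CellTiter-Blue had been added for 2 h at 37 °C. Cells from breast cancer lines had been seeded in 20 µl suspension onto 384-well plates pre-loaded with compound dissolved in 5 µl medium and kept for 72 h. EC50 comes from a fitted percent-inhibition dose-response curve censored at the highest concentration, after per-plate normalisation to vehicle and a positive kill control, Z'-factor checks, and removal of rows with zero drug sensitivity score.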

DU-4475 = tested on: DU-4475
Method in brief: as §1

MDA-MB-453 = tested on: MDA-MB-453
Method in brief: as §1

CAL-148 [2] = tested on: CAL-148
Method in brief: as §1

CAL-51 = tested on: CAL-51
Method in brief: as §1

MDA-MB-436 [3] = tested on: MDA-MB-436
Method in brief: as §1

MDA-MB-231 [4] = tested on: MDA-MB-231
Method in brief: as §1

HCC1937 [5] = tested on: HCC1937
Method in brief: as §1

MDA-MB-468 [6] = tested on: MDA-MB-468
Method in brief: as §1

CAL-120 = tested on: CAL-120
Method in brief: as §1

HCC1599 [7] = tested on: HCC1599
Method in brief: as §1

SK-BR-3 = tested on: SK-BR-3
Method in brief: as §1

HCC1143 = tested on: HCC1143
Method in brief: as §1

Hs578T [8] = tested on: Hs578T
Method in brief: as §1

BT-549 [9] = tested on: BT-549
Method in brief: as §1

MDA-MB-468 [10] = tested on: MDA-MB-468; remark: listed apart in the source
Description: (§2)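 Drug sensitivity and resistance testing (DSRT) of breast cancer cell lines in 384-well plates, 5 concentrations in 10-fold dilutions over a compound-specific 10,000-fold range. After 72 h, cytotoxicity was read by CellTox Green fluorescence and viability by CellTiter-Glo luminescence (multiplexed), normalised to DMSO and benzethonium chloride controls. EC50 is the inflection point of the fitted dose-response curve (bottom asymptote free, so it can be relative for partial curves) and is censored at the highest tested concentration. Rows with DSS 0 (no meaningful response) were excluded.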

CAL-85-1 [11] = tested on: CAL-85-1; remark: listed apart in the source
Description: as §2

CAL-148 [12] = tested on: CAL-148; remark: listed apart in the source
Description: as §2

HCC1599 [13] = tested on: HCC1599; remark: listed apart in the source
Method in brief: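 Per-plate normalisation used 0.1 % DMSO and a positive kill control. Breast cancer cell lines (20 µl suspension) were seeded into 384-well plates containing compound at 5 concentrations in 10-fold steps across a compound-specific 10,000-fold range, incubated for 72 h, and read first for CellTox Green fluorescence (485/520 nm), then for CellTiter-Glo luminescence. EC50 was fitted from the dose-response curves and censored at the top concentration.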

MDA-MB-231 [14] = tested on: MDA-MB-231; remark: listed apart in the source
Description: as §2

Hs578T [15] = tested on: Hs578T; remark: listed apart in the source
Description: as §2

BT-549 [16] = tested on: BT-549; remark: listed apart in the source
Description: as §2

MFM-223 [17] = tested on: MFM-223
Description: as §2

MDA-MB-436 [18] = tested on: MDA-MB-436; remark: listed apart in the source
Description: as §2

HDQ-P1 = tested on: HDQ-P1
Method in brief: as §1

MFM-223 [19] = tested on: MFM-223; remark: listed apart in the source
Method in brief: as §1

HCC1937 [20] = tested on: HCC1937; remark: listed apart in the source
Description: as §2

Row | Structure (SMILES) | EC50, CellTiter-Blue viability (HCC1937 [5]) [nM] | EC50, CellTiter-Blue viability (MDA-MB-468 [6]) [nM] | EC50, CellTiter-Blue viability (HCC1143) [nM] | EC50, CellTiter-Glo (HCC1599 [13]) [nM] | EC50, CellTiter-Blue viability (DU-4475) [nM] | EC50, CellTiter-Blue viability (CAL-148 [2]) [nM] | EC50, CellTiter-Blue viability (CAL-51) [nM] | EC50, CellTox Green (CAL-85-1 [11]) [nM] | EC50, CellTox Green (Hs578T [15]) [nM] | other results
1 | Nc1nc(Cl)nc2c1ncn2[C@@H]1O[C@H](CO)[C@@H](O)[C@@H]1F [Clofarabine] | 180 | 453 | 118 | 1740 | 472 | 563 | 870 | 1420 |  | EC50, CellTiter-Blue viability (CAL-85-1 [1]): 152 nM; EC50, CellTiter-Blue viability (MDA-MB-453): 484 nM; EC50, CellTiter-Blue viability (MDA-MB-436 [3]): 104 nM; EC50, CellTiter-Blue viability (MDA-MB-231 [4]): 20.5 nM; EC50, CellTiter-Blue viability (CAL-120): 116 nM; EC50, CellTiter-Blue viability (HCC1599 [7]): 2220 nM; EC50, CellTiter-Blue viability (SK-BR-3): 90.6 nM; EC50, CellTiter-Blue viability (Hs578T [8]): 149 nM; EC50, CellTiter-Blue viability (BT-549 [9]): 340 nM; EC50, CellTox Green (MDA-MB-468 [10]): > 10000 nM; EC50, CellTox Green (CAL-148 [12]): 169 nM
2 | COc1cc(Nc2ncc(F)c(Nc3ccc4c(n3)N(COP(=O)(O)O)C(=O)C(C)(C)O4)n2)cc(OC)c1OC [Fostamatinib] |  |  |  |  |  |  |  | 725 | 1080 | EC50, CellTox Green (MDA-MB-231 [14]): 267 nM; EC50, CellTox Green (BT-549 [16]): 1.6 nM
3 | O=C(c1cc(Cc2n[nH]c(=O)c3ccccc23)ccc1F)N1CCN(C(=O)C2CC2)CC1 [Olaparib] | 116 | 1610 |  |  | 418 |  | 6590 |  |  | EC50, CellTox Green (MDA-MB-436 [18]): 498 nM
4 | Cc1cc2c(F)c(Oc3ncnn4cc(OC[C@@H](C)O)c(C)c34)ccc2[nH]1 [Brivanib] |  |  |  |  |  |  |  | > 1000 |  | 
5 | CO[C@H]1C[C@@H]2CC[C@@H](C)[C@@](O)(O2)C(=O)C(=O)N2CCCC[C@H]2C(=O)O[C@H]([C@H](C)C[C@@H]2CC[C@@H](O)[C@H](OC)C2)CC(=O)[C@H](C)/C=C(\C)[C@@H](O)[C@@H](OC)C(=O)[C@H](C)C[C@H](C)/C=C/C=C/C=C/1C [Sirolimus] | 0.16 | 0.26 | 1.33 |  | 1.24 | 1.13 | 0.79 |  |  | EC50, CellTiter-Blue viability (HDQ-P1): 0.55 nM; EC50, CellTiter-Blue viability (CAL-85-1 [1]): 0.46 nM; EC50, CellTiter-Blue viability (MDA-MB-453): 0.71 nM; EC50, CellTiter-Blue viability (CAL-120): 1.32 nM; EC50, CellTiter-Blue viability (HCC1599 [7]): 1.57 nM; EC50, CellTiter-Blue viability (SK-BR-3): 3.42 nM; EC50, CellTiter-Blue viability (MFM-223 [19]): 0.18 nM; EC50, CellTiter-Blue viability (Hs578T [8]): 0.14 nM; EC50, CellTiter-Blue viability (BT-549 [9]): 0.2 nM; EC50, CellTox Green (HCC1937 [20]): 98.7 nM

More lines, main results first:

Row | EC50, CellTiter-Blue viability (HCC1937 [5]) [nM] | EC50, CellTiter-Blue viability (MDA-MB-468 [6]) [nM] | EC50, CellTiter-Blue viability (HCC1143) [nM] | EC50, CellTiter-Glo (HCC1599 [13]) [nM] | Structure (SMILES) | EC50, CellTiter-Blue viability (DU-4475) [nM] | EC50, CellTiter-Blue viability (CAL-148 [2]) [nM] | EC50, CellTiter-Blue viability (CAL-51) [nM] | EC50, CellTox Green (CAL-85-1 [11]) [nM] | EC50, CellTox Green (Hs578T [15]) [nM] | other results
6 |  |  |  | 28.8 | CC(C)n1nc(-c2ccc3oc(N)nc3c2)c2c(N)ncnc21 [INK128] |  |  |  |  | 130 | EC50, CellTox Green (MFM-223 [17]): 494 nM; EC50, CellTox Green (CAL-148 [12]): 56.9 nM
7 | 1330 |  | 1660 |  | NC(=O)c1cccc2cn(-c3ccc([C@@H]4CCCNC4)cc3)nc12 [MK-4827] | 4420 | 2330 | 1780 |  |  | 
8 |  |  |  | 649 | CC[C@H](CC#N)OC(=O)N[C@@H](C)c1cccc(NC(=O)Nc2ccc(-c3cnco3)c(OC)c2)c1 [AVN944] |  |  |  |  | 191 | 
